Entries after “also recorded” stand apart in the source; their conditions may differ.
Columns and labels:
[1] = test system: asexual-stage P. falciparum; test: Antimalarial activity on the asexual stage of P. falciparum (parasitemia in infected red blood cells); assay type: cell-based, Plasmodium falciparum
Experimental: 3-5-day cultured P. falciparum-infected red blood cells (iRBCs) were mixed with fresh human RBCs (AB+ type) in complete RPMI 1640 to prepare cultures with 0.5% parasitemia and 2% hematocrit. AST was dissolved in DMSO. […] The plate was incubated in a candle jar at 37° C. Approximately 48 h later, the medium was replaced with fresh medium containing the same concentration of AST. Parasitemia was recorded on day 4 post-incubation.

[2] = target: T1, PfGS-I (P. falciparum glutamine synthetase, MBP-fused) (Plasmodium falciparum, UniProt W7JM41); test: Glutamine synthetase assay (Glutamine/Glutamate-GLO), PfGS-I; assay type: biochemical
T1 sequence (W7JM41 1-544): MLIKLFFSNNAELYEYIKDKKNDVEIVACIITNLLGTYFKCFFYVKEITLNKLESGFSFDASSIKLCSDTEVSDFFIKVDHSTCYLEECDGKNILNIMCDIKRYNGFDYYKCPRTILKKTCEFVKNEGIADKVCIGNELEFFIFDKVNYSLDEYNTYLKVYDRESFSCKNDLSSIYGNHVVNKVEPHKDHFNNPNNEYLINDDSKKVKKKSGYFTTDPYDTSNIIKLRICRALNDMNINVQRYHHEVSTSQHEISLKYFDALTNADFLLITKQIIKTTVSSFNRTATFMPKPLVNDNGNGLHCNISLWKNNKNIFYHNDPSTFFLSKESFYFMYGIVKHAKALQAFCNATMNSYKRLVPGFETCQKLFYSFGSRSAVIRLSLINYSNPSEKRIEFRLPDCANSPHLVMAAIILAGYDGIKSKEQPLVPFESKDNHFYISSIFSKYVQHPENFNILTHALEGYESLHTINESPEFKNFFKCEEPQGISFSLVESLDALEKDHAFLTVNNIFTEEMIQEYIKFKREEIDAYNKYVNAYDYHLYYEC
Experimental: (§1) The activity and inhibition profiles of purified MBP-fused PfGS-I or human GS-II (hGS-II) (BioVision Inc., Milpitas, CA, USA) in the presence or absence of AST were estimated from glutamine production using Glutamine/Glutamate-GLO™ Assay Kit (Promega, Madison, WI). The assay mixture (50 mM imidazole-HCl buffer (pH 7.0), 7.6 mM ATP, 50 mM magnesium chloride, 50 mM ammonium chloride) with or without the indicated concentration of GS enzyme was preincubated in the presence or absence of the indicated concentrations of AST for 15 min at room temperature. The reaction was initiated by addition of L-glutamate at 0.1 mM, final concentration. The reaction mixtures were incubated at 37° C. with shaking at 300 rpm for indicated time. The reactions were terminated by chilling the reaction mixture in ice water and filtered with 30 kDa Amicon Ultra centrifugal filters at 4° C. Glutamate concentrations in the filtered samples were determined using Glutamine/Glutamate-GLO™ Assay as instructed in the kit's manual, from which glutamine concentrations were estimated by subtracting the glutamate concentrations from the initial concentrations (0.1 mM). The half maximal effective concentration (EC50) of AST for PfGS-I was calculated using Sigma Plot (Systat Software, Inc., Sun Jose, CA).

[3] = test system: Anopheles gambiae mosquitoes; test: Mosquito mortality observed in SMFA (insecticidal activity); assay type: in vivo; conditions: 0.1 to 3 μM in blood meal
Experimental: (§2) P. falciparum (NF54) was cultured in the complete RPMI-1640 containing 4% new O+ human red blood cells, 10% human AB+ serum, and 12.5 μg/ml of hypoxanthine in a candle jar at 37° C. Standard membrane feeding assays (SMFA) were used to examine the efficacy of AST. In brief, 10 ml of day-15 cultured P. falciparum containing ˜2% stage V gametocytes in a 15 ml centrifuge tube was centrifuged at 650×g for 5 min at RT. After the supernatant was removed, the cells were re-suspended in 1 ml of pre-warmed human AB− serum (37° C.), to which 1 ml of O+ hematocrit was added. 300 μl of the resulting infected blood were mixed with 2 μl of AST at different concentrations, yielding a final concentration of 0, 0.1, 0.3, 1, or 3 μM, which was fed a hundred 3-5-day-old female mosquitoes for 30 minutes. The unfed mosquitoes were removed, and the engorged mosquitoes were maintained with 10% sugar in the insectary. Seven days post-infection, the midguts were dissected and stained with 0.1% mercury dibromofluorescein salt in PBS for 30 minutes. The number of oocysts was counted under a 10× light microscope.

human GS-II (hGS-II) = target: T2, human GS-II (hGS-II) (Homo sapiens, UniProt P15104); test: Glutamine synthetase assay (Glutamine/Glutamate-GLO), human GS-II; assay type: biochemical; conditions: 1 μM AST, 1 μM hGS-II, 30 min
T2 construct: purchased BioVision Inc
Experimental: as §1

[4] = test system: human cell lines (HEK293, THP-1, macrophage, HepG2, Caco-2); test: Stability in culture media and human cell lysates (arsenic speciation by HPLC-ICP-MS); conditions: 100 μM AST, 48 h, five human cell lines
[5] = test system: sexual-stage P. falciparum transmission to Anopheles gambiae; test: Transmission-blocking standard membrane feeding assay (SMFA), oocysts in An. gambiae midguts; assay type: in vivo, Plasmodium falciparum
Experimental: as §2, with “300 μl of the resulting infected blood were mixed with 2 μl of AST at different concentrations, yielding a final concentration of 0, 0.1, 0.3, 1, or 3 μM, which was fed a hundred 3-5-day-old female mosquitoes for 30 minutes.” left out

[6] = test system: human cell lines (HEK293, THP-1, macrophage, HepG2, Caco-2); test: MTT cytotoxicity assay, five human cell lines overall
[7] = test system: macrophage-like cells differentiated from THP-1
[8] = test system: human cell lines (HEK293, THP-1, macrophage, HepG2, Caco-2)

T2 sequence (P15104 whole entry): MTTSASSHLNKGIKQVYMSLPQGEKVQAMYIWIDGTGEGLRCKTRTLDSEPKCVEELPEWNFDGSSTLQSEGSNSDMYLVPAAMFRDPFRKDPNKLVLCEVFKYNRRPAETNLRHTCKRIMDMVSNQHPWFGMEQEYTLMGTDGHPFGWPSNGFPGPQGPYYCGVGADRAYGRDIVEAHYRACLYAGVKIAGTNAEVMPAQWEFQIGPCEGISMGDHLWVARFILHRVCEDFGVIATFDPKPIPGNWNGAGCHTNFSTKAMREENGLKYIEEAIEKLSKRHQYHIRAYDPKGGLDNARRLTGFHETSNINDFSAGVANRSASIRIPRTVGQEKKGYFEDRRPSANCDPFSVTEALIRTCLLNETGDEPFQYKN

C[As](=O)(O)CC[C@H](N)C(=O)O [AST, 2-amino-4-(hydroxymethylarsinoyl)butanoate]
inhibition of P. falciparum proliferation in blood ([1]; AST at 100 μM): completely inhibits
EC50 ([1]; infected human blood, 0.5% parasitemia, 2% hematocrit, day 4, read-out: EC50 in inhibiting asexual-stage P. falciparum (50% of parasitemia rate vs AST-free control)): 13.9 µM
CC50 (HEK293 cells): > 250 µM
EC50 ([2]; 0.5 μM PfGS-I, 2 hours, read-out: EC50 for PfGS-I inhibition): 0.4 µM
reduction of PfGS-I activity ([2]; 1 μM AST): more than 60%
activity of PfGS-I compared with the control without AST treatment ([2]; 1 μM AST, 1 μM PfGS-I, 30 min): less than 40%
inhibition of PfGS-I activity ([2]; AST at 100 μM): completely inhibits
dead mosquitoes (insecticidal activity) [3]: no dead mosquitoes were observed
CC50 (THP-1 cells): > 250 µM
effect on hGS-II activity (human GS-II (hGS-II)): did not significantly reduce; also recorded: little effect
arsenic species in culture media and cell lysates (stability) [4]: almost exclusively AST
inhibition of P. falciparum transmission to An. gambiae compared to PT and MSO ([5]; 3 μM, SMFA, oocysts day 7): significantly inhibits
inhibition of malaria transmission ([5]; 3 μM, SMFA, oocysts day 7): completely inhibited
inhibition of transmission to mosquitoes ([5]; AST at 100 μM): completely inhibits
EC50 ([5]; SMFA, An. gambiae, oocysts day 7 post-infection, read-out: EC50 in blocking transmission of sexual-stage P. falciparum to mosquitos (50% of oocysts per mosquito vs control)): 0.34 µM
effect on viability of the tested human cell lines ([6]; AST at 100 μM, most of the tested cell lines): little effect
times less cytotoxic than As(III) ([6]; ratio of LC50 values, human cell lines): > 10 times
CC50 (Caco-2 cells): 150 to 200 µM
CC50 [7]: > 250 µM
CC50 (HepG2 cells): > 250 µM
permeability (total arsenic levels in cells) [8]: permeable to cytomembrane
permeability to HepG2 cells [8]: moderately permeable
